Assay results from patent US8772250B2, “Compositions and methods for treating ischemia and ischemia-reperfusion injury” (Ischemix, LLC, priority 2010, dated 2014).
Like-named read-outs stand apart in the source and are kept apart here.

Experiment: Pharmacokinetic evaluation in humans
Assay type: in vivo
Settings: human; for CL renal: plasma and urine; for AUC(0-inf) / clearance / Cmax / Vd / half-life / AUC(0-t): plasma
Procedure: Plasma and urine RLip-EA-OH concentrations were measured at BASi, Inc. (West Lafayette, Ind.) using a LC/MS/MS method with positive turbo ion spray, in the multiple reaction-monitoring mode. The quantifiable range for human plasma was 1.00 to 500 ng/mL and QC samples were included at 3.00, 75.0 and 375 ng/mL.
The PK population included subjects who received RLip-EA-OH and had ≧1 post-dose PK measurement. […] Plasma samples from 24 subjects (6 RLip-EA-OH subjects per cohort) were analyzed (Tables 16 and 17).

For C[C@H](NC(=O)[C@H](CCC(=O)O)NC(=O)CCCC[C@@H]1CCSS1)C(=O)O [RLip-EA-OH, N-(R)-lipoyl-L-glutamyl-L- alanine], the CL renal (20 mg, noncompartmental, read-out: Renal clearance, Mean (SD) (converted)) was 168 mL/min, the CL renal (20 mg, noncompartmental, read-out: Renal clearance, Median (converted)) was 186 mL/min and the CL renal (20 mg, noncompartmental, read-out: Renal clearance, Minimum, maximum) was 80.8 to 255 mL/min. The CL renal (60 mg, noncompartmental, read-out: Renal clearance, Mean (SD) (converted)) was 181 mL/min, the CL renal (60 mg, noncompartmental, read-out: Renal clearance, Median (converted)) was 188 mL/min and the CL renal (60 mg, noncompartmental, read-out: Renal clearance, Minimum, maximum) was 135 to 220 mL/min. For the same molecule, the CL renal (150 mg, noncompartmental, read-out: Renal clearance, Mean (SD) (converted)) was 124 mL/min, the CL renal (150 mg, noncompartmental, read-out: Renal clearance, Median (converted)) was 98 mL/min and the CL renal (150 mg, noncompartmental, read-out: Renal clearance, Minimum, maximum) was 58.5 to 243 mL/min. It also gave a CL renal (300 mg, noncompartmental, read-out: Renal clearance, Mean (SD) (converted)) of 141 mL/min, a CL renal (300 mg, noncompartmental, read-out: Renal clearance, Median (converted)) of 140 mL/min and a CL renal (300 mg, noncompartmental, read-out: Renal clearance, Minimum, maximum) of 85.2 to 200 mL/min. It also gave an AUC(0-inf) (20 mg, compartmental, read-out: AUCinf, Mean (SD)) of 621 ng·h/mL, an AUC(0-inf) (20 mg, compartmental, read-out: AUCinf, Median) of 614 ng·h/mL and an AUC(0-inf) (20 mg, compartmental, read-out: AUCinf, Minimum, maximum) of 474 to 787 ng·h/mL. It also gave a clearance (20 mg, compartmental, read-out: CL, Mean (SD) (converted)) of 557 mL/min, a clearance (20 mg, compartmental, read-out: CL, Median (converted)) of 545 mL/min and a clearance (20 mg, compartmental, read-out: CL, Minimum, maximum) of 423 to 703 mL/min. The Cmax (20 mg, compartmental, read-out: Estimated Cmax, Mean (SD)) was 2360 ng/mL, the Cmax (20 mg, compartmental, read-out: Estimated Cmax, Median) was 2480 ng/mL and the Cmax (20 mg, compartmental, read-out: Estimated Cmax, Minimum, maximum) was 1360 to 3340 ng/mL. The Vd (20 mg, compartmental, read-out: Vss, Mean (SD)) was 16 L, the Vd (20 mg, compartmental, read-out: Vss, Median) was 16 L and the Vd (20 mg, compartmental, read-out: Vss, Minimum, maximum) was 11 to 20 L. The half-life (20 mg, compartmental, read-out: t1/2, Mean (SD) (converted)) was 60 min, the half-life (20 mg, compartmental, read-out: t1/2, Median (converted)) was 48 min and the half-life (20 mg, compartmental, read-out: t1/2, Minimum, maximum) was 36 to 96 min. For the same molecule, the AUC(0-t) (20 mg, noncompartmental, read-out: AUC0-t, Mean (SD)) was 581 ng·h/mL, the AUC(0-t) (20 mg, noncompartmental, read-out: AUC0-t, Median) was 556 ng·h/mL and the AUC(0-t) (20 mg, noncompartmental, read-out: AUC0-t, Minimum, maximum) was 466 to 717 ng·h/mL. For the same molecule, the AUC(0-inf) (20 mg, noncompartmental, read-out: AUCinf, Mean (SD)) was 583 ng·h/mL, the AUC(0-inf) (20 mg, noncompartmental, read-out: AUCinf, Median) was 558 ng·h/mL and the AUC(0-inf) (20 mg, noncompartmental, read-out: AUCinf, Minimum, maximum) was 467 to 718 ng·h/mL. It also gave a clearance (20 mg, noncompartmental, read-out: CL, Mean (SD) (converted)) of 588 mL/min, a clearance (20 mg, noncompartmental, read-out: CL, Median (converted)) of 598 mL/min and a clearance (20 mg, noncompartmental, read-out: CL, Minimum, maximum) of 465 to 713 mL/min. For the same molecule, the Cmax (20 mg, noncompartmental, read-out: Cmax, Mean (SD)) was 1830 ng/mL, the Cmax (20 mg, noncompartmental, read-out: Cmax, Median) was 1840 ng/mL and the Cmax (20 mg, noncompartmental, read-out: Cmax, Minimum, maximum) was 1220 to 2420 ng/mL. For the same molecule, the Vd (20 mg, noncompartmental, read-out: Vss, Mean (SD)) was 18.5 L, the Vd (20 mg, noncompartmental, read-out: Vss, Median) was 18.7 L and the Vd (20 mg, noncompartmental, read-out: Vss, Minimum, maximum) was 14.4 to 22.4 L. For the same molecule, the half-life (20 mg, noncompartmental, read-out: t1/2, Mean (SD) (converted)) was 51.6 min, the half-life (20 mg, noncompartmental, read-out: t1/2, Median (converted)) was 45.6 min and the half-life (20 mg, noncompartmental, read-out: t1/2, Minimum, maximum) was 36.6 to 84.6 min. The clearance (20 mg, read-out: CL (converted)) was 588 mL/min, the AUC(0-inf) (60 mg, compartmental, read-out: AUCinf, Mean (SD)) was 2260 ng·h/mL and the AUC(0-inf) (60 mg, compartmental, read-out: AUCinf, Median) was 1910 ng·h/mL. The AUC(0-inf) (60 mg, compartmental, read-out: AUCinf, Minimum, maximum) was 1770 to 3160 ng·h/mL, the clearance (60 mg, compartmental, read-out: CL, Mean (SD) (converted)) was 467 mL/min and the clearance (60 mg, compartmental, read-out: CL, Median (converted)) was 523 mL/min. It also gave a clearance (60 mg, compartmental, read-out: CL, Minimum, maximum) of 317 to 565 mL/min, a Cmax (60 mg, compartmental, read-out: Estimated Cmax, Mean (SD)) of 6870 ng/mL and a Cmax (60 mg, compartmental, read-out: Estimated Cmax, Median) of 6290 ng/mL. For the same molecule, the Cmax (60 mg, compartmental, read-out: Estimated Cmax, Minimum, maximum) was 5520 to 9050 ng/mL, the Vd (60 mg, compartmental, read-out: Vss, Mean (SD)) was 14 L and the Vd (60 mg, compartmental, read-out: Vss, Median) was 15 L. For the same molecule, the Vd (60 mg, compartmental, read-out: Vss, Minimum, maximum) was 10 to 17 L, the half-life (60 mg, compartmental, read-out: t1/2, Mean (SD) (converted)) was 90 min and the half-life (60 mg, compartmental, read-out: t1/2, Median (converted)) was 84 min. The half-life (60 mg, compartmental, read-out: t1/2, Minimum, maximum) was 66 to 156 min, the AUC(0-t) (60 mg, noncompartmental, read-out: AUC0-t, Mean (SD)) was 2250 ng·h/mL and the AUC(0-t) (60 mg, noncompartmental, read-out: AUC0-t, Median) was 1980 ng·h/mL. For the same molecule, the AUC(0-t) (60 mg, noncompartmental, read-out: AUC0-t, Minimum, maximum) was 1720 to 3110 ng·h/mL, the AUC(0-inf) (60 mg, noncompartmental, read-out: AUCinf, Mean (SD)) was 2260 ng·h/mL and the AUC(0-inf) (60 mg, noncompartmental, read-out: AUCinf, Median) was 1980 ng·h/mL. It also gave an AUC(0-inf) (60 mg, noncompartmental, read-out: AUCinf, Minimum, maximum) of 1720 to 3110 ng·h/mL, a clearance (60 mg, noncompartmental, read-out: CL, Mean (SD) (converted)) of 467 mL/min and a clearance (60 mg, noncompartmental, read-out: CL, Median (converted)) of 505 mL/min. For the same molecule, the clearance (60 mg, noncompartmental, read-out: CL, Minimum, maximum) was 322 to 582 mL/min, the Cmax (60 mg, noncompartmental, read-out: Cmax, Mean (SD)) was 6560 ng/mL and the Cmax (60 mg, noncompartmental, read-out: Cmax, Median) was 6840 ng/mL. The Cmax (60 mg, noncompartmental, read-out: Cmax, Minimum, maximum) was 5190 to 7990 ng/mL, the Vd (60 mg, noncompartmental, read-out: Vss, Mean (SD)) was 14.9 L and the Vd (60 mg, noncompartmental, read-out: Vss, Median) was 14.8 L. For the same molecule, the Vd (60 mg, noncompartmental, read-out: Vss, Minimum, maximum) was 11.3 to 18.6 L, the half-life (60 mg, noncompartmental, read-out: t1/2, Mean (SD) (converted)) was 72.6 min and the half-life (60 mg, noncompartmental, read-out: t1/2, Median (converted)) was 75.6 min. It also gave a half-life (60 mg, noncompartmental, read-out: t1/2, Minimum, maximum) of 50.4 to 90 min, an AUC(0-inf) (150 mg, compartmental, read-out: AUCinf, Mean (SD)) of 7030 ng·h/mL and an AUC(0-inf) (150 mg, compartmental, read-out: AUCinf, Median) of 6920 ng·h/mL. For the same molecule, the AUC(0-inf) (150 mg, compartmental, read-out: AUCinf, Minimum, maximum) was 4890 to 9610 ng·h/mL and the clearance (150 mg, compartmental, read-out: CL, Mean (SD) (converted)) was 370 mL/min.
